Test results: patent publication US20060275847A1, “Method for assessing biofilms” (priority 2002, published 2006)

Columns and labels:
Assay type in all cases: cell-based, Escherichia coli
[1] = test system: tac promoter (GFP expression) in E. coli CL182; assay: GFP expression from the IPTG responsive tac promoter in adhered CL182; settings: without IPTG versus with IPTG (0.2 μM) in Luria broth
Description: (§1) The strains were mixed and grown in the presence of selective antibiotics (tetracycline, ampicillin or chloramphenicol) and the effects were visualised using the IN Cell Analyzer.
(§2) E. coli cultures were grown in batch culture at 37° C. for 16 hours under selective pressure. Cells were pelleted by centrifugation, washed and resuspended in cold PBS. OD600 mn was normalised (to 1) for both cultures and solutions were diluted ten fold in cold PBS. Cells (100 μl) were allowed to settle and adhere to the surface of a Packard microtitre plate (Packard #6005182) at 4° C. for 1 hour. Adhered E. coli were washed twice with PBS (100 μl). Luria broth (100 μl) with or without IPTG (0.2 μM), and ampicillin (100 μg/ml), tetracycline (10 μg/ml) and chloramphenicol (34 μg/ml) were added to adhered cells and incubated at 37° C. for 4 hours and 16 hours. Cells were washed twice with PBS and incubated for 10 minutes in Hoechst 33342 (0.1 μM in PBS). Cells were washed in PBS and imaged sequentially using the UV (365 nm) and blue (488 nm) laser lines to excite Hoechst 33342 and GFP respectively. […]
(§3) The images were then analysed using the algorithms described in FIGS. 7 to 14. […] In addition, the overlap between green and blue fluorescent biofilm was calculated in 3D.

XL1-blue and CL182 cells = assay: Differential 3D analysis of mixed adhered E. coli cultures grown with selective antibiotics; settings: for inhibition of biofilm development: summary statement referring to FIGS. 17 and 18
Description: as §1
E. coli cultures were grown in batch culture at 37° C. for 16 hours under selective pressure. Cells were pelleted by centrifugation, washed and resuspended in cold PBS. OD600 mn was normalised (to 1) for both cultures and solutions were diluted ten fold in cold PBS. Cells (100 μl) were allowed to settle and adhere to the surface of a Packard microtitre plate (Packard #6005182) at 4° C. for 1 hour. Adhered E. coli were washed twice with PBS (100 μl). Luria broth (100 μl) with or without IPTG (0.2 μM), and ampicillin (100 μg/ml), tetracycline (10 μg/ml) and chloramphenicol (34 μg/ml) were added to adhered cells and incubated at 37° C. for 4 hours and 16 hours. Cells were washed twice with PBS and incubated for 10 minutes in Hoechst 33342 (0.1 μM in PBS). Cells were washed in PBS and imaged sequentially using the UV (365 nm) and blue (488 nm) laser lines to excite Hoechst 33342 and GFP respectively. Emission light was captured using the 450BP65 and 565BP50 filters and collected as 12 bit images; 24 slices were acquired per condition with 1 μm spacing between them.
The images were then analysed using the algorithms described in FIGS. 7 to 14. The voxel dimensions were established prior to conducting the experiment using sub-resolution and super-resolution beads. The analysis thus provides data on the amount of biofilm in both colour planes in three dimensions as described previously. In addition, the overlap between green and blue fluorescent biofilm was calculated in 3D.

E. coli XL1-blue = assay: Differential 3D analysis of adhered E. coli cultures (confocal imaging, adhered culture volume); settings: Luria broth, chloramphenicol 34 μg/ml, 37° C., 4 hours and 16 hours
Description: as §1, §2, §3

E. coli CL182 = assay: as above; settings: Luria broth, chloramphenicol 34 μg/ml, 37° C., 4 hours and 16 hours
Description: as §1, §2, §3

SMILES | reduction in the expression of GFP from the tac promoter by CL182 in the absence of IPTG [1] [%] | differential inhibition of growth of XL1-blue and CL182 cells (XL1-blue and CL182 cells; ampicillin 100 μg/ml, tetracycline 10 μg/ml, 37° C., 4 hours and 16 hours, XL1-blue tetracycline resistant, CL182 ampicillin resistant) | inhibition of biofilm development (XL1-blue and CL182 cells) | inhibition of growth of XL1-blue (E. coli XL1-blue) | inhibition of growth of CL182 (E. coli CL182)
CC(C)S[C@@H]1O[C@H](CO)[C@H](O)[C@H](O)[C@H]1O [IPTG] | ~25 | – | – | – | –
CC1(C)S[C@@H]2[C@H](NC(=O)[C@H](N)c3ccccc3)C(=O)N2[C@H]1C(=O)O [ampicillin] | – | Differential inhibition | differentially inhibit | – | –
O=C(N[C@H](CO)[C@H](O)c1ccc([N+](=O)[O-])cc1)C(Cl)Cl [chloramphenicol] | – | – | differentially inhibit | strongly inhibited | strongly inhibited
